These compounds were tested against T1, CRTH2 (KB8 cells) (Homo sapiens, UniProt Q9Y5Y4) (assay: CRTH2 antagonist test (PGD2-induced intracellular calcium ion concentration increase in KB8 cells)). Settings: PGD2 100 nM, Fluo-4 calcium fluorescence, read-out: CRTH2 antagonist activity IC50 value.
T1 construct: host or cells: KB8 cells (human CRTH2 expression cell)
T1 sequence (Q9Y5Y4 1-395): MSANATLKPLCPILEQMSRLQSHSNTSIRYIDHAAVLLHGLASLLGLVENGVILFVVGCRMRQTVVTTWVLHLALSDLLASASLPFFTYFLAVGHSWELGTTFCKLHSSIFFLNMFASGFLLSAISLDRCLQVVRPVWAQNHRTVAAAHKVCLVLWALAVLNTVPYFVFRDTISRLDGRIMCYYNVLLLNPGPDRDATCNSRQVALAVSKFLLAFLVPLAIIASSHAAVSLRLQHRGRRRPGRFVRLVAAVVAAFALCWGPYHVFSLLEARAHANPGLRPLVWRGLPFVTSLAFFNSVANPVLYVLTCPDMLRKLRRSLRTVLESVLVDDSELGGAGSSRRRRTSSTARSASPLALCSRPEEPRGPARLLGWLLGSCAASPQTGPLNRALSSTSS
Assay type: cell-based
Method in brief: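 Fluo-4-AM-loaded KB8 cells in HBSS with 10 mM HEPES and 1 mM CaCl2 received compound plus PGD2 (final 100 nM); peak fluorescence followed over time. Inhibition was computed against no-compound and unlabelled-PGD2 controls, and IC50 obtained from a dose-response curve.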

IC50 | SMILES
20 nM | O=C(O)Cc1cnc(Cc2ccc(C(=O)NCCc3ccc(C(F)(F)F)cc3)cc2)c2ccccc12 [Example 201]
5.9 nM | O=C(O)Cc1cnc(Cc2ccc(C(=O)NCCc3cc4cc(Cl)ccc4[nH]3)cc2)c2ccccc12 [Example 234]
6.6 nM | O=C(O)Cc1cnc(Cc2ccc(C(=O)NCCC34CC5CC(CC(C5)C3)C4)cc2)c2ccccc12 [Example 240]

Same assay, conditions: PGD2 final concentration 100 nM, Fluo-4-AM fluorescence, read-out: antagonist activity (IC50 value, inhibition of calcium ion concentration increase)

IC50 | SMILES
< 50 nM | O=C(O)Cc1cnc(Cc2ccc(C(=O)NCCc3ccc(C(F)(F)F)cc3)cc2)c2ccccc12 [Example 201]
50 to 500 nM | O=C(O)Cc1cnc(Cc2ccc(C(=O)NCCc3ccc4ccccc4n3)cc2)c2ccccc12 [Example 202]
< 50 nM | O=C(O)Cc1cnc(Cc2ccc(C(=O)NCCc3ccc(OC(F)(F)F)cc3)cc2)c2ccccc12 [Example 203]
< 50 nM | Cc1ccc(CCNC(=O)c2ccc(Cc3ncc(CC(=O)O)c4ccccc34)cc2)cc1F [Example 204]
< 50 nM | O=C(O)Cc1cnc(Cc2ccc(C(=O)NCCc3ccc4ccccc4c3)cc2)c2ccccc12 [Example 205]
50 to 500 nM | CN(C)c1ccc(CCNC(=O)c2ccc(Cc3ncc(CC(=O)O)c4ccccc34)cc2)cc1 [Example 206]
≥ 1000 nM | CS(=O)(=O)c1ccc(CCNC(=O)c2ccc(Cc3ncc(CC(=O)O)c4ccccc34)cc2)cc1 [Example 207]
< 50 nM | Cc1ccc(CCNC(=O)c2ccc(Cc3ncc(CC(=O)O)c4ccccc34)cc2)c(C)c1 [Example 208]
≥ 1000 nM | COc1cc(CCNC(=O)c2ccc(Cc3ncc(CC(=O)O)c4ccccc34)cc2)cc(OC)c1O [Example 209]
< 50 nM | O=C(O)Cc1cnc(Cc2ccc(C(=O)NCCc3ccc(F)c(Cl)c3)cc2)c2ccccc12 [Example 210]
50 to 500 nM | COc1cc(CCNC(=O)c2ccc(Cc3ncc(CC(=O)O)c4ccccc34)cc2)ccc1C [Example 211]
50 to 500 nM | O=C(O)Cc1cnc(Cc2ccc(C(=O)NCCc3cc(F)cc(F)c3)cc2)c2ccccc12 [Example 212]
50 to 500 nM | Cc1ccc(F)cc1CCNC(=O)c1ccc(Cc2ncc(CC(=O)O)c3ccccc23)cc1 [Example 213]
≥ 1000 nM | O=C(O)Cc1cnc(Cc2ccc(C(=O)NCCC3CCOCC3)cc2)c2ccccc12 [Example 214]
50 to 500 nM | O=C(O)Cc1cnc(Cc2ccc(C(=O)NCCc3cc(F)cc(C(F)(F)F)c3)cc2)c2ccccc12 [Example 215]
50 to 500 nM | O=C(O)Cc1cnc(Cc2ccc(C(=O)NCCc3cc(F)cc(Cl)c3)cc2)c2ccccc12 [Example 216]
< 50 nM | Cc1cccc(C)c1CCNC(=O)c1ccc(Cc2ncc(CC(=O)O)c3ccccc23)cc1 [Example 217]
< 50 nM | O=C(O)Cc1cnc(Cc2ccc(C(=O)NCCc3ccc4c(c3)CCCC4)cc2)c2ccccc12 [Example 218]
50 to 500 nM | O=C(O)Cc1cnc(Cc2ccc(C(=O)NCCc3cc(Cl)cc(Cl)c3)cc2)c2ccccc12 [Example 219]
≥ 1000 nM | CNC(=O)c1ccc(Cc2ncc(CC(=O)O)c3ccccc23)cc1 [Example 220]

IC50 | SMILES
< 50 nM | O=C(O)Cc1cnc(Cc2ccc(C(=O)NCCc3ccc(Cl)c(F)c3)cc2)c2ccccc12 [Example 221]
< 50 nM | O=C(O)Cc1cnc(Cc2ccc(C(=O)NCCc3cc(C(F)(F)F)cc(C(F)(F)F)c3)cc2)c2ccccc12 [Example 222]
50 to 500 nM | N#Cc1ccc(CCNC(=O)c2ccc(Cc3ncc(CC(=O)O)c4ccccc34)cc2)cc1 [Example 223]
50 to 500 nM | O=C(O)Cc1cnc(Cc2ccc(C(=O)NCCc3cc(Cl)ccc3Cl)cc2)c2ccccc12 [Example 224]
< 50 nM | CC(C)Oc1ccc(CCNC(=O)c2ccc(Cc3ncc(CC(=O)O)c4ccccc34)cc2)cc1 [Example 225]
< 50 nM | O=C(O)Cc1cnc(Cc2ccc(C(=O)NCCc3cccc(Cl)c3Cl)cc2)c2ccccc12 [Example 226]
≥ 1000 nM | O=C(O)Cc1cnc(Cc2ccc(C(=O)NCCc3cn4ccccc4n3)cc2)c2ccccc12 [Example 227]
< 50 nM | O=C(O)Cc1cnc(Cc2ccc(C(=O)NCCc3cc(F)ccc3Cl)cc2)c2ccccc12 [Example 228]
< 50 nM | O=C(O)Cc1cnc(Cc2ccc(C(=O)NCCc3ccc(F)c(F)c3)cc2)c2ccccc12 [Example 229]
< 50 nM | O=C(O)Cc1cnc(Cc2ccc(C(=O)NCCc3csc4ccccc34)cc2)c2ccccc12 [Example 230]
< 50 nM | Cc1cc(C)cc(CCNC(=O)c2ccc(Cc3ncc(CC(=O)O)c4ccccc34)cc2)c1 [Example 231]
< 50 nM | COc1ccc(CCNC(=O)c2ccc(Cc3ncc(CC(=O)O)c4ccccc34)cc2)cc1F [Example 232]
< 50 nM | O=C(O)Cc1cnc(Cc2ccc(C(=O)NCCc3ccc(F)cc3Cl)cc2)c2ccccc12 [Example 233]
< 50 nM | O=C(O)Cc1cnc(Cc2ccc(C(=O)NCCc3cc4cc(Cl)ccc4[nH]3)cc2)c2ccccc12 [Example 234]
< 50 nM | O=C(O)Cc1cnc(Cc2ccc(C(=O)NCCc3cc4cc(F)ccc4[nH]3)cc2)c2ccccc12 [Example 235]
< 50 nM | COc1ccc2[nH]c(CCNC(=O)c3ccc(Cc4ncc(CC(=O)O)c5ccccc45)cc3)cc2c1 [Example 236]
< 50 nM | O=C(O)Cc1cnc(Cc2ccc(C(=O)NCCc3ccc(C4CCCCC4)cc3)cc2)c2ccccc12 [Example 237]
< 50 nM | CCCCCCc1ccc(CCNC(=O)c2ccc(Cc3ncc(CC(=O)O)c4ccccc34)cc2)cc1 [Example 238]
50 to 500 nM | O=C(O)Cc1cnc(Cc2ccc(C(=O)NCCC3CC3)cc2)c2ccccc12 [Example 239]
< 50 nM | O=C(O)Cc1cnc(Cc2ccc(C(=O)NCCC34CC5CC(CC(C5)C3)C4)cc2)c2ccccc12 [Example 240]

IC50 | SMILES
< 50 nM | CCCOc1ccc(CCNC(=O)c2ccc(Cc3ncc(CC(=O)O)c4ccccc34)cc2)cc1 [Example 241]
< 50 nM | Cc1ccc2sc(CCNC(=O)c3ccc(Cc4ncc(CC(=O)O)c5ccccc45)cc3)cc2c1 [Example 242]
< 50 nM | O=C(O)Cc1cnc(Cc2ccc(C(=O)NCCc3ccccc3Oc3ccccc3)cc2)c2ccccc12 [Example 243]
< 50 nM | O=C(O)Cc1cnc(Cc2ccc(C(=O)NCCc3cccc(Cl)c3F)cc2)c2ccccc12 [Example 244]
< 50 nM | Cc1cc(CCNC(=O)c2ccc(Cc3ncc(CC(=O)O)c4ccccc34)cc2)ccc1Cl [Example 245]
50 to 500 nM | O=C(O)Cc1cnc(Cc2ccc(C(=O)NCC3(c4ccc(Cl)cc4)CC3)cc2)c2ccccc12 [Example 246]
50 to 500 nM | O=C(O)Cc1cnc(Cc2ccc(C(=O)NCCNC(=O)c3ccc(Cl)cc3)cc2)c2ccccc12 [Example 247]
50 to 500 nM | O=C(O)Cc1cnc(Cc2ccc(C(=O)NCCc3nc4ccccc4[nH]3)cc2)c2ccccc12 [Example 248]
< 50 nM | O=C(O)Cc1cnc(Cc2ccc(C(=O)NCCc3cc4ccccc4o3)cc2)c2ccccc12 [Example 249]
< 50 nM | O=C(O)Cc1cnc(Cc2ccc(C(=O)NCCc3nc4ccccc4s3)cc2)c2ccccc12 [Example 250]
50 to 500 nM | CC(C)(CNC(=O)c1ccc(Cc2ncc(CC(=O)O)c3ccccc23)cc1)c1ccc(Cl)cc1 [Example 251]
≥ 1000 nM | O=C(O)Cc1cnc(Cc2ccccc2OCc2ccc(Cl)cc2)c2ccccc12 [Example 252, (1-{2-[(4-chlorobenzyl)oxy]benzyl}isoquinolin-4-yl)acetic acid]
< 50 nM | O=C(O)Cc1cnc(Cc2ccc(C(=O)NCCc3ccc(Cl)cc3)cc2)c2ccc(F)cc12 [Example 253, [1-(4-{[2-(4-chlorophenyl)ethyl]carbamoyl}benzyl)-6-fluoroisoquinoline-4-yl]acetic acid]
500 to 1000 nM | CC(C(=O)O)c1cnc(Cc2ccc(C(=O)NCCc3ccc(Cl)cc3)cc2)c2ccccc12 (stereo not drawn) [Example 254, 2-[1-(4-{[2-(4-chlorophenyl)ethyl]carbamoyl}benzyl)isoquinolin-4-yl]propanoic acid]
≥ 1000 nM | CC(C)(C(=O)O)c1cnc(C(=O)c2ccc(C(=O)NCCc3ccc(Cl)cc3)cc2)c2ccccc12 [Example 255, 2-{1-[(4-{[2-(4-chlorophenyl)ethyl]carbamoyl}phenyl)carbonyl]isoquinolin-4-yl}-2-methylpropanoic acid]
≥ 1000 nM | NC(=O)Cc1cnc(Cc2ccc(C(=O)NCCc3ccc(Cl)cc3)cc2)c2ccccc12 [Example 256, 4-{[4-(2-amino-2-oxoethyl)isoquinolin-1-yl]methyl}-N-[2-(4-chlorophenyl)ethyl]benzamide]
≥ 1000 nM | O=C(NCCc1ccc(Cl)cc1)c1ccc(Cc2ncc(Cc3nnn[nH]3)c3ccccc23)cc1 [Example 257, N-[2-(4-chlorophenyl)ethyl]-4-{[4-(1H-tetrazol-5-ylmethyl)isoquinolin-1-yl]methyl}benzamide]
≥ 1000 nM | O=C(Cc1cnc(Cc2ccc(C(=O)NCCc3ccc(Cl)cc3)cc2)c2ccccc12)NO [Example 258, N-[2-(4-chlorophenyl)ethyl]-4-({4-[2-(hydroxyamino)-2-oxoethyl]isoquinolin-1-yl}methyl)benzamide]
50 to 500 nM | COc1cc2c(CC(=O)O)cnc(C(=O)c3ccc(C(=O)NCCc4ccc(Cl)cc4)cc3)c2cc1OC [Example 259, {1-[(4-{[2-(4-chlorophenyl)ethyl]carbamoyl}phenyl)carbonyl]-6,7-dimethoxyisoquinolin-4-yl}acetic acid]
50 to 500 nM | COc1ccc2c(C(=O)c3ccc(C(=O)NCCc4ccc(Cl)cc4)cc3)ncc(CC(=O)O)c2c1 [Example 260, {1-[(4-{[2-(4-chlorophenyl)ethyl]carbamoyl}phenyl)carbonyl]-6-methoxyisoquinolin-4-yl}acetic acid]
